Measurements reported in patent US9725448B2, “Neprilysin inhibitors” (THERAVANCE BIOPHARMA R&D IP, LLC, priority 2011, dated 2017).

target: T1, human NEP (Homo sapiens, UniProt P08473); assay: In vitro enzyme inhibition assay at human NEP (fluorogenic peptide substrate); type: biochemical; details: pKi values at human NEP (recombinant), given as ranges
T1 construct: purchased R&D Systems, Minneapolis, Minn; 1182-ZN
Protocol: The inhibitory activities of compounds at human and rat neprilysin (EC 3.4.24.11; NEP) and human angiotensin converting enzyme (ACE) were determined using in vitro assays as described below.
Recombinant human NEP and recombinant human ACE were obtained commercially (R&D Systems, Minneapolis, Minn., catalog numbers 1182-ZN and 929-ZN, respectively). The fluorogenic peptide substrate Mca-D-Arg-Arg-Leu-Dap-(Dnp)-OH (Medeiros et al. (1997) Braz. J. Med. Biol. Res. 30:1157-62; Anaspec, San Jose, Calif.) and Abz-Phe-Arg-Lys(Dnp)-Pro-OH (Araujo et al. (2000) Biochemistry 39:8519-8525; Bachem, Torrance, Calif.) were used in the NEP and ACE assays respectively.
The assays were performed in 384-well white opaque plates at 37° C. using the fluorogenic peptide substrates at a concentration of 10 μM in Assay Buffer (NEP: 50 mM HEPES, pH 7.5, 100 mM NaCl, 0.01% polyethylene glycol sorbitan monolaurate (Tween-20), […]; ACE: 50 mM HEPES, pH 7.5, 100 mM NaCl, 0.01% Tween-20, 1 μM ZnSO4).
Test compounds were assayed over the range of concentrations from 10 μM to 20 pM. Test compounds were added to the enzymes and incubated for 30 minute at 37° C. prior to initiating the reaction by the addition of substrate. Reactions were terminated after 20 minutes of incubation at 37° C. by the addition of glacial acetic acid to a final concentration of 3.6% (v/v).
Plates were read on a fluorometer with excitation and emission wavelengths set to 320 nm and 405 nm, respectively. Inhibition constants were obtained by nonlinear regression of the data using the equation (GraphPad Software, Inc., San Diego, Calif.): ν=ν0/[1+(I/K′)] where ν is the reaction rate, ν0 is the uninhibited reaction rate, I is the inhibitor concentration and K′ is the apparent inhibition constant.
Compounds of the invention were tested in this assay and found to have pKi values at human NEP as follows.

T1 sequence (P08473 52-750 limits assumed): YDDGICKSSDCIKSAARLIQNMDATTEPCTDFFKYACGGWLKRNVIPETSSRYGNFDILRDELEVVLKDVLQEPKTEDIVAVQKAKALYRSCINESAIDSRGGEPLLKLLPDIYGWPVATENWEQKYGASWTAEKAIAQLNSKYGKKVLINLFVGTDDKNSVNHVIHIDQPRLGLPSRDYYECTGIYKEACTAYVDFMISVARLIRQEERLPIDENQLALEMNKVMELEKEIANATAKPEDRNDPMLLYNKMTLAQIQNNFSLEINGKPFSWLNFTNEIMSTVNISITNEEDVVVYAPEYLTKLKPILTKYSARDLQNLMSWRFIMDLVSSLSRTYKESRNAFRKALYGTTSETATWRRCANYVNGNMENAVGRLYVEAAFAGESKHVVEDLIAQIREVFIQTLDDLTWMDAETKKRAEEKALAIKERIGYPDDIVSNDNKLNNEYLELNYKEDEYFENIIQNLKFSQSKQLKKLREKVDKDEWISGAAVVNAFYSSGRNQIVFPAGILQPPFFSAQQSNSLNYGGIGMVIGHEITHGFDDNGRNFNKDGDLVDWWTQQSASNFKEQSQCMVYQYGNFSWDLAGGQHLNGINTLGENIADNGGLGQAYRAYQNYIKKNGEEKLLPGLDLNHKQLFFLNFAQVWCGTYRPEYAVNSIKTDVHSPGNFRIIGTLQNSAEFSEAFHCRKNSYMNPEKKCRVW

Ki [nM] | Structure (SMILES)
1.26 to 10 | CC(O)(C[C@@H](Cc1ccc(-c2ccccc2)cc1)NC(=O)c1cc(O)n[nH]1)C(=O)O (stereo partly drawn) [Example 2-12, (R)-5-Biphenyl-4-yl-2-hydroxy-4-[(5-hydroxy-2H-pyrazole-3-carbonyl)-amino]-2-methyl-pentanoic acid]
1.26 to 10 | C[C@@](O)(CN(Cc1ccc(-c2cccc(F)c2)cc1)NC(=O)c1cc(O)no1)C(=O)O [Example 7-20, (R)-3-[N-(3′-Fluorobiphenyl-4-ylmethyl)-N′-(3-hydroxy-isoxazole-5-carbonyl)-hydrazino]-2-hydroxy-2-methyl-propionic acid]
12.6 to 100 | C[C@](O)(C[C@@H](Cc1ccc(-c2ccccc2)cc1)NC(=O)c1cnn[nH]1)C(=O)O [Example 2-1, (2S,4R)-5-Biphenyl-4-yl-2-hydroxy-2-methyl-4-[(3H-[1,2,3]triazole-4-carbonyl)-amino]-pentanoic acid]
≤ 1 | CC(O)(C[C@@H](Cc1ccc(-c2ccccc2)cc1)NC(=O)c1cc(O)no1)C(=O)O (stereo partly drawn) [Example 2-7, (R)-5-Biphenyl-4-yl-2-hydroxy-4-[(3-hydroxy-isoxazole-5-carbonyl)-amino]-2-methyl-pentanoic acid]
1.26 to 10 | CC(O)(C[C@@H](Cc1ccc(-c2ccccc2)cc1)NC(=O)c1cc(Cl)c2nn[nH]c2c1)C(=O)O (stereo partly drawn) [Example 2-5, (R)-5-Biphenyl-4-yl-4-[(7-chloro-3H-benzotriazole-5-carbonyl)-amino]-2-hydroxy-2-methyl-pentanoic acid]
1.26 to 10 | C[C@@](O)(CN(Cc1ccc(-c2cccc(Cl)c2)cc1)NC(=O)c1cn(O)nn1)C(=O)O [Example 7-2, (R)-3-[N-(3′-Chlorobiphenyl-4-ylmethyl)-N′-(1-hydroxy-1H-[1,2,3]triazole-4-carbonyl)-hydrazino]-2-hydroxy-2-methyl-propionic acid]
≤ 1 | C[C@@](O)(C[C@@H](Cc1ccc(-c2ccccc2)cc1)NC(=O)c1cc(C(=O)O)n[nH]1)C(=O)O [Example 2-13, 5-((1R,3R)-1-Biphenyl-4-ylmethyl-3-carboxy-3-hydroxy-butylcarbamoyl)-1H-pyrazole-3-carboxylic acid]
12.6 to 100 | CN(C)C(=O)c1cc(C(=O)N[C@H](Cc2ccc(-c3ccccc3)cc2)CC(C)(C)C(=O)O)[nH]n1 [Example 9-13, (R)-5-Biphenyl-4-yl-4-[(5-dimethylcarbamoyl-2H-pyrazole-3-carbonyl)-amino]-2,2-dimethyl-pentanoic acid]
1.26 to 10 | CC(C)(C[C@@H](Cc1ccc(-c2ccccc2)cc1)NC(=O)c1nc(O)n[nH]1)C(=O)O [Example 9-3, (R)-5-Biphenyl-4-yl-4-[(5-hydroxy-2H-[1,2,4]triazole-3-carbonyl)-amino]-2,2-dimethyl-pentanoic acid]
1.26 to 10 | C[C@](O)(C[C@@H](Cc1ccc(-c2ccccc2)cc1)NC(=O)c1cnc(O)nc1)C(=O)O [Example 2-10, (2S,4R)-5-Biphenyl-4-yl-2-hydroxy-4-[(2-hydroxy-pyrimidine-5-carbonyl)-amino]-2-methyl-pentanoic acid]
≤ 1 | Cc1ccc(Cl)cc1-c1ccc(CN(C[C@@](C)(O)C(=O)O)NC(=O)c2cc(O)no2)cc1 [Example 7-12, (R)-3-[N-(5′-Chloro-2′-methyl-biphenyl-4-ylmethyl)-N′-(3-hydroxy-isoxazole-5-carbonyl)-hydrazino]-2-hydroxy-2-methyl-propionic acid]
1.26 to 10 | Cc1ccc(Cl)cc1-c1ccc(CN(C[C@@](C)(O)C(=O)O)NC(=O)c2nnn[nH]2)cc1 [Example 7-24, (R)-3-[N-(5′-Chloro-2′-methyl-biphenyl-4-ylmethyl)-N′-(1H-tetrazole-5-carbonyl)-hydrazino]-2-hydroxy-2-methyl-propionic acid]
1.26 to 10 | C[C@@](O)(CN(Cc1ccc(-c2cccc(Cl)c2)cc1)NC(=O)c1cnc(O)nc1)C(=O)O [Example 7-25, (R)-3-[N-(3′-Chlorobiphenyl-4-ylmethyl)-N′-(2-hydroxy-pyrimidine-5-carbonyl)-hydrazino]-2-hydroxy-2-methyl-propionic acid]
1.26 to 10 | C[C@@](O)(CN(Cc1ccc(-c2cc(F)ccc2F)cc1)NC(=O)c1cc(O)no1)C(=O)O [Example 7-18, (R)-3-[N-(2′,5′-Difluorobiphenyl-4-ylmethyl)-N′-(3-hydroxy-isoxazole-5-carbonyl)-hydrazino]-2-hydroxy-2-methyl-propionic acid]
12.6 to 100 | C[C@@](O)(CN(Cc1ccc(-c2cccc(Cl)c2)cc1)NC(=O)c1cc(-c2cnccn2)n[nH]1)C(=O)O [Example 7-8, (R)-3-[N-(3′-Chlorobiphenyl-4-ylmethyl)-N′-(5-pyrazin-2-yl-2H-pyrazole-3-carbonyl)-hydrazino]-2-hydroxy-2-methyl-propionic acid]
1.26 to 10 | C[C@](O)(C[C@@H](Cc1ccc(-c2ccccc2)cc1)NC(=O)c1cc(C(=O)O)[nH]n1)C(=O)O [Example 2-11, 5-((1R,3S)-1-Biphenyl-4-ylmethyl-3-carboxy-3-hydroxy-butylcarbamoyl)-2H-pyrazole-3-carboxylic acid]
12.6 to 100 | CC(O)(C[C@@H](Cc1ccc(-c2ccccc2)cc1)NC(=O)c1nc[nH]n1)C(=O)O (stereo partly drawn) [Example 2-2, (R)-5-Biphenyl-4-yl-2-hydroxy-2-methyl-4-[(2H-[1,2,4]triazole-3-carbonyl)-amino]-pentanoic acid]
12.6 to 100 | CC(C)(C[C@@H](Cc1ccc(-c2ccccc2)cc1)NC(=O)c1cc(C(=O)N2CCC(O)CC2)n[nH]1)C(=O)O [Example 9-10, (R)-5-Biphenyl-4-yl-4-{[5-(4-hydroxy-piperidine-1-carbonyl)-2H-pyrazole-3-carbonyl]-amino}-2,2-dimethyl-pentanoic acid]
1.26 to 10 | O=C(N[C@H](Cc1ccc(-c2ccccc2)cc1)CC1(C(=O)O)CC1)c1nc(O)n[nH]1 [Example 11-3, 1-{(R)-3-Biphenyl-4-yl-2-[(5-hydroxy-2H-[1,2,4]triazole-3-carbonyl)-amino]-propyl}-cyclopropanecarboxylic acid]
1.26 to 10 | CC(C)(C[C@@H](Cc1ccc(-c2ccccc2)cc1)NC(=O)c1cnn[nH]1)C(=O)O [Example 9-1, (R)-5-Biphenyl-4-yl-2,2-dimethyl-4-[(3H-[1,2,3]triazole-4-carbonyl)-amino]-pentanoic acid]
12.6 to 100 | CC(C)(C[C@@H](Cc1ccc(-c2ccccc2)cc1)NC(=O)c1cc(C(=O)N2CCOCC2)n[nH]1)C(=O)O [Example 9-8, (R)-5-Biphenyl-4-yl-2,2-dimethyl-4-{[5-(morpholine-4-carbonyl)-2H-pyrazole-3-carbonyl]-amino}-pentanoic acid]
≤ 1 | C[C@@](O)(CN(Cc1ccc(-c2cc(Cl)ccc2Cl)cc1)NC(=O)c1cc(O)no1)C(=O)O [Example 7-19, (R)-3-[N-(2′,5′-Dichlorobiphenyl-4-ylmethyl)-N′-(3-hydroxy-isoxazole-5-carbonyl)-hydrazino]-2-hydroxy-2-methyl-propionic acid]
12.6 to 100 | CC(C)(C[C@@H](Cc1ccc(-c2ccccc2)cc1)NC(=O)c1cc(C(=O)NCCc2c[nH]cn2)n[nH]1)C(=O)O [Example 9-17, (R)-5-Biphenyl-4-yl-4-({5-[2-(1H-imidazol-4-yl)-ethylcarbamoyl]-2H-pyrazole-3-carbonyl}-amino)-2,2-dimethyl-pentanoic acid]
126 to 1000 | COc1cc(C(=O)NN(Cc2ccc(-c3ccccc3)cc2)CC(C)(O)C(=O)O)on1 (stereo not shown) [Example 4-3, 3-[N-Biphenyl-4-ylmethyl-N′-(3-methoxy-isoxazole-5-carbonyl)-hydrazino]-2-hydroxy-2-methyl-propionic acid]
126 to 1000 | CC(O)(CN(Cc1ccc(-c2ccccc2)cc1)NC(=O)c1nnc(Cl)[nH]1)C(=O)O (stereo not shown) [Example 4-2, 3-[N-Biphenyl-4-ylmethyl-N′-(5-chloro-4H-[1,2,4]triazole-3-carbonyl)-hydrazino]-2-hydroxy-2-methyl-propionic acid]
1.26 to 10 | C[C@@](O)(CN(Cc1ccc(-c2cc(Cl)ccc2F)cc1)NC(=O)c1nnn[nH]1)C(=O)O [Example 7-23, (R)-3-[N-(5′-Chloro-2′-fluorobiphenyl-4-ylmethyl)-N′-(1H-tetrazole-5-carbonyl)-hydrazino]-2-hydroxy-2-methyl-propionic acid]
12.6 to 100 | CC(C)(C[C@@H](Cc1ccc(-c2ccccc2)cc1)NC(=O)c1cc(C(=O)N2CCC(O)C2)n[nH]1)C(=O)O (stereo partly drawn) [Example 9-9, (R)-5-Biphenyl-4-yl-4-{[5-(3-hydroxy-pyrrolidine-1-carbonyl)-2H-pyrazole-3-carbonyl]-amino}-2,2-dimethyl-pentanoic acid]
≤ 1 | O=C(N[C@H](Cc1ccc(-c2ccccc2)cc1)CC1(C(=O)O)CC1)c1cc(C(=O)O)[nH]n1 [Example 10A, 5-[(R)-2-Biphenyl-4-yl-1-(1-carboxy-cyclopropylmethyl)-ethylcarbamoyl]-2H-pyrazole-3-carboxylic acid]
